The values that follow are results of earlier work, collected in patent publication US20190262453A1, “DESIGN AND COMPOSITION OF CELL-STABILIZED PHARMACEUTICAL FORMULATIONS” (THE REGENTS OF THE UNIVERSITY OF MICHIGAN, priority 2016, published 2019).

For the data set the following is noted: in vivo; cited from earlier work.
For `Nc1nc(=O)n([C@@H]2CS[C@H](CO)O2)cc1F` [Emtricitabine], the Vd (as a rule, a proportionality between amount in the body and measured concentration, not a real space) is 3.5 L/kg.
On to `CO[C@H]1C[C@@H]2CC[C@@H](C)[C@@](O)(O2)C(=O)C(=O)N2CCCC[C@H]2C(=O)O[C@H]([C@H](C)C[C@@H]2CC[C@@H](OC(=O)C(C)(CO)CO)[C@H](OC)C2)CC(=O)[C@H](C)/C=C(\C)[C@@H](O)[C@@H](OC)C(=O)[C@H](C)C[C@H](C)/C=C/C=C/C=C/1C` [Temsirolimus], for which the Vd is 3.3 L/kg.
Take Ivermectin: the Vd is 9.91 L/kg.
Turning to `O=C(NCC1CCCCN1)c1cc(OCC(F)(F)F)ccc1OCC(F)(F)F` (centres unmarked) [Flecainide], the Vd is 4.9 L/kg.
Take `CN(C)c1cc(NC(=O)CNC(C)(C)C)c(O)c2c1C[C@H]1C[C@H]3[C@H](N(C)C)C(O)=C(C(N)=O)C(=O)[C@@]3(O)C(O)=C1C2=O` [Tigecycline]: the Vd was 7.2 L/kg.
For the compound `CC[C@H]1OC(=O)[C@H](C)[C@@H](O[C@H]2C[C@@](C)(OC)[C@@H](O)[C@H](C)O2)[C@H](C)[C@@H](O[C@@H]2O[C@H](C)C[C@H](N(C)C)[C@H]2O)[C@](C)(O)C[C@@H](C)CN(C)[C@H](C)[C@@H](O)[C@]1(C)O` [Azithromycin], the Vd is 31 L/kg.
Take `O=[N+]([O-])OCC(CO[N+](=O)[O-])O[N+](=O)[O-]` [Nitroglycerin]: the Vd is 3.3 L/kg.
As for `COc1ccc([C@@H]2Sc3ccccc3N(CCN(C)C)C(=O)[C@@H]2OC(C)=O)cc1` [Diltiazem], the Vd is 3.3 L/kg.
For `CCN(CC)CCNC(=O)c1cc(Cl)c(N)cc1OC` [Metoclopramide], the Vd was 3.4 L/kg.
Turning to `CCC(C)n1ncn(-c2ccc(N3CCN(c4ccc(OCC5COC(Cn6cncn6)(c6ccc(Cl)cc6Cl)O5)cc4)CC3)cc2)c1=O` (centres unmarked) [Itraconazole], the Vd was 10.7 L/kg.
For the compound `O=C1CN=C(c2ccccc2Cl)c2cc([N+](=O)[O-])ccc2N1` [Clonazepam], the Vd was 3.2 L/kg.
As to `O=C(CCCN1CCC(O)(c2ccc(Cl)cc2)CC1)c1ccc(F)cc1` [Haloperidol], the Vd was 18 L/kg.
For `CC(C)NCC(O)COc1cccc2ccccc12` (centres unmarked) [Propranolol], the volume of distribution (Vd) was 4.3 L/kg.
As to `CN(C)CCCN1c2ccccc2Sc2ccc(Cl)cc21` [Chlorpromazine], the Vd was 21 L/kg.
With `OCCOCCN1CCN(C2=Nc3ccccc3Sc3ccccc32)CC1` [Quetiapine], the Vd was 10 L/kg.
As for `CNCC[C@H](Oc1cccc2ccccc12)c1cccs1` [Duloxetine], the Vd is 7 L/kg.
Regarding `CCCCCOC(=O)Nc1nc(=O)n([C@@H]2O[C@H](C)[C@@H](O)[C@H]2O)cc1F` [Capecitabine], the distribution volume (Vd) was 27.27 L/kg.
For the compound `COCCc1ccc(OCC(O)CNC(C)C)cc1` (centres unmarked) [Metoprolol], the Vd was 4.2 L/kg.
Regarding `CC(CN1c2ccccc2Sc2ccccc21)N(C)C` (centres unmarked) [Promethazine], the Vd was 13.4 L/kg.
For the compound `CC(=O)O[C@@]12CO[C@@H]1C[C@H](O)[C@@]1(C)C(=O)[C@H](O)C3=C(C)[C@@H](OC(=O)[C@H](O)[C@@H](NC(=O)OC(C)(C)C)c4ccccc4)C[C@@](O)([C@@H](OC(=O)c4ccccc4)[C@H]21)C3(C)C` [Docetaxel], the distribution volume (Vd) is 7.27 L/kg.
With `CNCCC(Oc1ccc(C(F)(F)F)cc1)c1ccccc1` (centres unmarked) [Fluoxetine], the Vd was 35 L/kg.
As for `Cc1nc2n(c(=O)c1CCN1CCC(c3noc4cc(F)ccc34)CC1)CCCC2O` (centres unmarked) [Paliperidone], the Vd was 9.1 L/kg.
Take `OCCN1CCN(CCCN2c3ccccc3Sc3ccc(C(F)(F)F)cc32)CC1` [Fluphenazine]: the Vd was 11 L/kg.
Turning to `O=C1CC2(CCCC2)CC(=O)N1CCCCN1CCN(c2ncccn2)CC1` [Buspirone], the volume of distribution (Vd) is 5.3 L/kg.
Turning to `C[C@]12CC[C@@H]3c4ccc(O)cc4C[C@@H](CCCCCCCCC[S+]([O-])CCCC(F)(F)C(F)(F)F)[C@H]3[C@@H]1CC[C@@H]2O` (some centres unmarked) [Fulvestrant], the Vd is 4.15 L/kg.
Consider `CC[C@]1(O)C[C@H]2CN(CCc3c([nH]c4ccccc34)[C@@](C(=O)OC)(c3cc4c(cc3OC)N(C=O)[C@H]3[C@@](O)(C(=O)OC)[C@H](OC(C)=O)[C@]5(CC)C=CCN6CC[C@]43[C@@H]65)C2)C1` [Vincristine], for which the Vd is 9.79 L/kg.
As to `OC(c1cc(C(F)(F)F)nc2c(C(F)(F)F)cccc12)C1CCCCN1` (centres unmarked) [Mefloquine], the Vd is 19 L/kg.
For the compound `C[C@@H](NCCCc1cccc(C(F)(F)F)c1)c1cccc2ccccc12` [Cinacalcet], the Vd was 17.6 L/kg.
With `Cc1cn(-c2cc(NC(=O)c3ccc(C)c(Nc4nccc(-c5cccnc5)n4)c3)cc(C(F)(F)F)c2)cn1` [Nilotinib], the Vd is 3.0 L/kg.
With `COc1c(C)c2c(c(O)c1C/C=C(\C)CCC(=O)O)C(=O)OC2` [Mycophenolate], the Vd was 3.8 L/kg.
In the case of `CN(C)CCOc1ccc(/C(=C(/CCCl)c2ccccc2)c2ccccc2)cc1` [Toremifene], the Vd was 48.38 L/kg.
Turning to `CCN(CCO)CCCC(C)Nc1ccnc2cc(Cl)ccc12` (centres unmarked) [Hydroxychloroquine], the volume of distribution (Vd) is 525 L/kg.
As to `O=C(c1ccc(OCCN2CCCCC2)cc1)c1c(-c2ccc(O)cc2)sc2cc(O)ccc12` [Raloxifene], the volume of distribution (Vd) was 2348 L/kg.
On to `CCC1=C[C@@H]2CN(C1)Cc1c([nH]c3ccccc13)[C@@](C(=O)OC)(c1cc3c(cc1OC)N(C)[C@H]1[C@@](O)(C(=O)OC)[C@H](OC(C)=O)[C@]4(CC)C=CCN5CC[C@]31[C@@H]54)C2` [Vinorelbine], for which the Vd is 76 L/kg.
For `O=C1c2c(O)ccc(O)c2C(=O)c2c(NCCNCCO)ccc(NCCNCCO)c21` [Mitoxantrone], the Vd is 90 L/kg.
For the compound `CN(C)CC(c1ccc(O)cc1)C1(O)CCCCC1` (centres unmarked) [Desvenlafaxine], the Vd was 7.5 L/kg.
Take `CO[C@H]1C[C@@H]2CC[C@@H](C)[C@@](O)(O2)C(=O)C(=O)N2CCCC[C@H]2C(=O)O[C@H]([C@H](C)C[C@@H]2CC[C@@H](O)[C@H](OC)C2)CC(=O)[C@H](C)/C=C(\C)[C@@H](O)[C@@H](OC)C(=O)[C@H](C)C[C@H](C)/C=C/C=C/C=C/1C` [Sirolimus]: the distribution volume (Vd) was 12 L/kg.
Take `COc1cc2nc(N(C)CCCNC(=O)C3CCCO3)nc(N)c2cc1OC` (centres unmarked) [Alfuzosin]: the Vd is 3.2 L/kg.
With `CN(C)CCC=C1c2ccccc2COc2ccccc21` [Doxepin], the Vd was 24 L/kg.
Regarding `CC/C(=C(\c1ccccc1)c1ccc(OCCN(C)C)cc1)c1ccccc1` [Tamoxifen], the Vd was 55 L/kg.
`COc1cccc2c1C(=O)c1c(O)c3c(c(O)c1C2=O)C[C@@](O)(C(=O)CO)C[C@@H]3O[C@H]1C[C@H](N)[C@H](O)[C@H](C)O1` [Doxorubicin]: the volume of distribution (Vd) is 682 L/kg.
For `CCN(CC)CCNC(=O)c1c(C)[nH]c(/C=C2\C(=O)Nc3ccc(F)cc32)c1C` [Sunitinib], the Vd is 4 L/kg.
Regarding `Fc1ccc([C@@H]2CCNC[C@H]2COc2ccc3c(c2)OCO3)cc1` [Paroxetine], the Vd is 17 L/kg.
`CCN(CC)CCCC(C)Nc1ccnc2cc(Cl)ccc12` (centres unmarked) [Chloroquine]: the Vd was 196.5 L/kg.
For the compound `CN1CCN2c3ncccc3Cc3ccccc3C2C1` (centres unmarked) [Mirtazapine], the volume of distribution (Vd) was 4.5 L/kg.
Consider `CCCN[C@H]1CCc2nc(N)sc2C1` [Pramipexole], for which the Vd is 7.3 L/kg.
`O=C(O[C@H]1CN2CCC1CC2)N1CCc2ccccc2[C@@H]1c1ccccc1` [Solifenacin]: the Vd was 671 L/kg.
